Experimental findings from patent US10995068B2, “Synthetic sphingolipid-like molecules, drugs, methods of their synthesis and methods of treatment” (The Regents of the University of California, priority 2015, dated 2021) are described below.

Assay [1] concerns the target T1, S1P receptor 1 (Homo sapiens, UniProt P21453).
T1 construct: expressed in transfected cells
The experiment in a line: S1P receptor activation in CHO cells, S1P1. It is filed as cell-based. The conditions noted are these: CHO cells over-expressing human S1P1, 10 min stimulation, Western blot. In short, it runs like this:
(§1)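 CHO cells stably overexpressing each human S1P receptor subtype, serum-starved 24 h, then stimulated 10 min in serum-free DMEM with 0.1 mg/ml fatty-acid-free BSA ± compounds or S1P. Lysates analysed by Western blot for phospho-Thr202/Tyr204-p42/p44-MAPK and phospho-Ser PKC substrate, normalised to total p42/p44.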

Assay [2] addresses T2, S1P receptor 4 (Homo sapiens, UniProt O95977).
T2 construct: expressed in transfected cells
T2 sequence (O95977 1-384): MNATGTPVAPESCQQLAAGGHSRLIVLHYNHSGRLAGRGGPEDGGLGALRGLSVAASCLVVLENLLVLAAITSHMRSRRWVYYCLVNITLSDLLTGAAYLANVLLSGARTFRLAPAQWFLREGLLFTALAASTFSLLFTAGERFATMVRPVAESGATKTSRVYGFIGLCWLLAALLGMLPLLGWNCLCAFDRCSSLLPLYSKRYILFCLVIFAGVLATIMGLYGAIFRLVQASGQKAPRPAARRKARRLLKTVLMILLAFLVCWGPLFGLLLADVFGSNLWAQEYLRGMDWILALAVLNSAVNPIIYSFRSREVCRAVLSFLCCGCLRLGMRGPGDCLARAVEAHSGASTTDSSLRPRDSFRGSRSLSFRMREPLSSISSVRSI
As to the kind of experiment: S1P receptor activation in CHO cells, S1P4. It is filed as cell-based. The conditions noted are these: CHO cells over-expressing human S1P4. In short, it runs like this: as §1

A short description of assay [3]: Lymphocyte sequestration in mice. It is filed as in vivo, C57BL6 mice. Conditions: 10 mg/kg intraperitoneally, blood after 12 h, compared to saline. An excerpt:
In more exemplary embodiments, compounds 5 and 5-P were further examined for their ability to activate multiple S1P receptors in vivo. In particular, mouse heart rate and lymphocyte sequestration were examined. Mouse heart rate decreases causing bradycardia when S1P receptor 3 is activated while in humans this effect may be mediated by S1P receptor 1. In both mice and humans, lymphocytes are sequestered when the S1P receptor 1 is activated.
Lymphocyte sequestration: Female 8-24 week old C57BL6 mice are injected intraperitoneally with vehicle (0.9% saline or 20% acidified DMSO in 0.9% saline), 10 mg/kg FTY720, FTY720-phosphate, 5, or 5-P. After 12 h, blood is collected from the retro-orbital sinus under ketamine/xylazine anesthesia. 10 μL of whole blood is added to 190 μL of ACK red blood cell lysis buffer, incubated at room temperature for 3-5 minutes […], and the white blood cells recovered by centrifugation. Nucleated cells (Hoechst33342 positive) are counted using a hemocytometer to obtain the white blood cell count. Separately, 50 μL of whole blood is added to 1 mL of ACK red blood cell lysis buffer and incubated for 3-5 minutes at room temperature. Cells are washed with FACS wash (2% FCS in PBS with 0.05% NaN3) and red blood cell lysis repeated. Tubes are decanted and resuspended in 100 μL of FACS block (10% FCS in PBS with 0.05% NaN3) with directly conjugated antibodies recognizing B220, CD4, or CD8 (all from Biolegend, San Diego) for 30 min on ice. Cells are analyzed on a BD LSR II flow cytometer; the analysis is restricted to live cells (DAPI negative). These experiments are performed in accordance with all national or local guidelines and regulations and are approved by the UCI Institutional Animal Care and Use Committee.

T1 sequence (P21453 whole entry): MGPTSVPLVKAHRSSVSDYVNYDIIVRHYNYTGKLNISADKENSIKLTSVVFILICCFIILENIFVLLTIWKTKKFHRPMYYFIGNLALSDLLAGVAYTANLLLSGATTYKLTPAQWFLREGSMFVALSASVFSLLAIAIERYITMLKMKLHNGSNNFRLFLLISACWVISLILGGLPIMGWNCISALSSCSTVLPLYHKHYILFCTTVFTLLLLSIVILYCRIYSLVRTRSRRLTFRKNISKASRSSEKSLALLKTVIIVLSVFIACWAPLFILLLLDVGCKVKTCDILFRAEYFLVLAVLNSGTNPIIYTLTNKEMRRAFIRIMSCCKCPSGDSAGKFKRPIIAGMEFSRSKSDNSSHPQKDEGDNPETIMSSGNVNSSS

Take `CCCCCCCCc1ccc([C@H]2CCN[C@@H]2CO)cc1.Cl` [Compound 5, (2S,3R)-2-(hydroxymethyl)-3-(4-octylphenyl)Pyrrolidinium chloride]: the “activation of S1P receptor 1” value in assay [1] was “weakly activated”. Further, the “activation of S1P receptor 4” value in assay [2] is listed as “failed to activate”. In assay [3], the lymphocyte sequestration result is reported as “no significant effect”.

Regarding `CCCCCCCCc1ccc([C@@H]2CCN[C@H]2CO)cc1.Cl` [Compound 6], the “activation of S1P receptor 1” value in assay [1] is reported as “weakly activated”. In addition, the “activation of S1P receptor 4” value in assay [2] is “failed to activate”.

With `CCCCCCCCc1ccc(CCC(N)(CO)CO)cc1.Cl` [FTY720, 2-Amino-2-[2-(4-octylphenyl)ethyl]propane 1,3-diol hydrochloride, reference compound], the lymphocyte sequestration result in assay [3] is reported as “significantly sequestered lymphocytes”.
